# Experimental data reported in patent publication US11091478B2 (Fochon Pharmaceuticals, Ltd., priority 2017, dated 2021).
# Test system: DOHH2 cells
# Assay: Cell proliferation assay (MTS), DOHH2 cells, 120 h
# Format: cell-based
# Conditions: Homo sapiens, DOHH-2, 120 h
# Excerpt: Cell Proliferation Assays
# MTS testing kit was purchased from Promega. The RPMI-1640, Fetal bovine serum and Penicillin-Streptomycin were purchased from Gibco. Dimethyl sulfoxide (DMSO) was purchased from Sigma.
# To investigate whether a compound is able to inhibit the activity of BCL-2 in cells, a mechanism-based assay using DOHH2 (DSMZ No.® ACC 47) and RS4;11 (ATCC® CRL-1873™) cell was developed. In this assay, inhibition of Bcl-2 was detected by the inhibition of DOHH2 cells proliferation. DOHH2 cells were cultured in culture flasks to 40-80% confluence in RPMI-1640 plus 10% fetal bovine serum. Cells were collected and plated onto 96-well plates at desired cell density (5000 cells/well). Plates were incubated overnight at 37° C., with 5% CO2 to adhere. Compounds were added to the plates, and the final compound concentrations were 10000, 3333, 1111, […], 124, 41, 14, 4.6 and 1.5 nM. Plates plated with DOHH2 or RS4;11 cells were placed at 37° C., with 5% CO2 for 120 h (DOHH2) or 72 h (RS4;11) respectively. 20 μl MTS/100 μl medium mixture solution were added to each well and incubate the plates for exactly 2 hours. The reaction was stopped by adding 25 μl 10% SDS per well. Measure absorbance at 490 nm and 650 nm (reference wavelength). IC50 was calculated using GraphPad Prism 5.0.
# Select compounds prepared as described above were assayed according to the biological procedures described herein.
row,SMILES,IC50 [nM]
1,"CC1(C)CCC(CN2CCN(c3ccc(C(=O)NS(=O)(=O)c4cc5c(c([N+](=O)[O-])c4)N[C@H](c4ccc(F)cn4)CO5)c(Oc4cnc5[nH]ccc5c4)c3)CC2)=C(c2ccc(Cl)cc2)C1 [Example 2-178, (R)-2-((1H-pyrrolo[2,3-b]pyridin-5-yl)oxy)-4-(4-((4′-chloro-5,5-dimethyl-3,4,5,6-tetra-hydro-[1,1′-biphenyl]-2-yl)methyl)piperazin-1-yl)-N-((3-(5-fluoropyridin-2-yl)-5-nitro-3,4-dihydro-2H-benzo[b][1,4]oxazin-7-yl)sulfonyl)benzamide]",28
2,"CC1(C)CCC(CN2CCN(c3ccc(C(=O)NS(=O)(=O)c4cc5c(c([N+](=O)[O-])c4)N[C@@H](Cc4ccccc4Cl)CO5)c(Oc4cnc5[nH]ccc5c4)c3)CC2)=C(c2ccc(Cl)cc2)C1 [Example 2-191, (S)-2-((1H-pyrrolo[2,3-b]pyridin-5-yl)oxy)-4-(4-((4′-chloro-5,5-dimethyl-3,4,5,6-tetra-hydro-[1,1′-biphenyl]-2-yl)methyl)piperazin-1-yl)-N-((3-(2-chlorobenzyl)-5-nitro-3,4-dihydro-2H-benzo[b][1,4]oxazin-7-yl)sulfo-nyl)benzamide]",153
3,"CC1(C)CCC(CN2CCN(c3ccc(C(=O)NS(=O)(=O)c4cc5c(c([N+](=O)[O-])c4)N[C@@H](c4ccc(F)cn4)CO5)c(Oc4cnc5[nH]ccc5c4)c3)CC2)=C(c2ccc(Cl)cc2)C1 [Example 2-197, (S)-2-((1H-pyrrolo[2,3-b]pyridin-5-yl)oxy)-4-(4-((4′-chloro-5,5-dimethyl-3,4,5,6-tetra-hydro-[1,1′-biphenyl]-2-yl)methyl)piperazin-1-yl)-N-((3-(5-fluoropyridin-2-yl)-5-nitro-3,4-dihydro-2H-benzo[b][1,4]oxazin-7-yl)sulfonyl)benzamide]",412
4,"CC1(C)CCC(CN2CCN(c3ccc(C(=O)NS(=O)(=O)c4cc5c(c([N+](=O)[O-])c4)N[C@@H](c4ccc(Cl)cn4)CO5)c(Oc4cnc5[nH]ccc5c4)c3)CC2)=C(c2ccc(Cl)cc2)C1 [Example 2-198B, (S)-2-((1H-pyrrolo[2,3-b]pyridin-5-yl)oxy)-4-(4-((4′-chloro-5,5-dimethyl-3,4,5,6-tetra-hydro-[1,1′-biphenyl]-2-yl)methyl)piperazin-1-yl)-N-((3-(5-chloropyridin-2-yl)-5-nitro-3,4-dihydro-2H-benzo[b][1,4]oxazin-7-yl)sulfonyl)benzamide]",444
5,"CC1(C)CCC(CN2CCN(c3ccc(C(=O)NS(=O)(=O)c4cc5c(c([N+](=O)[O-])c4)N[C@@H](Cc4ccc(Cl)cc4)CO5)c(Oc4cnc5[nH]ccc5c4)c3)CC2)=C(c2ccc(Cl)cc2)C1 [Example 2-207, (S)-2-((1H-pyrrolo[2,3-b]pyridin-5-yl)oxy)-4-(4-((4′-chloro-5,5-dimethyl-3,4,5,6-tetra-hydro-[1,1′-phenyl]-2-yl)methyl)piperazin-1-yl)-N-((3-(4-chlorobenzyl)-5-nitro-3,4-dihydro-2H-benzo[b][1,4]oxazin-7-yl)sulfo-nyl)benzamide]",402
6,"CC1(C)CCC(CN2CCN(c3ccc(C(=O)NS(=O)(=O)c4cc5c(c([N+](=O)[O-])c4)N[C@H](c4ccc(Cl)cn4)CO5)c(Oc4cnc5[nH]ccc5c4)c3)CC2)=C(c2ccc(Cl)cc2)C1 [Example 2-217, (R)-2-((1H-pyrrolo[2,3-b]pyridin-5-yl)oxy)-4-(4-((4′-chloro-5,5-dimethyl-3,4,5,6-tetra-hydro-[1,1′-biphenyl]-2-yl)methyl)piperazin-1-yl)-N-((3-(5-chloropyridin-2-yl)-5-nitro-3,4-dihydro-2H-benzo[b][1,4]oxazin-7-yl)sulfonyl)benzamide]",715
